Assay results reported in patent US20220326219A1, “METHODS AND DEVICE FOR THE ANALYSIS OF TISSUE SAMPLES” (PRECOMB THERAPEUTICS AG, priority 2019, published 2022).

Assays:
[1] = system: pancreatic pdx microtumors 12558; assay: Drug efficacy on PDX-derived pancreatic microtumors by tumor growth kinetics over 11 days; format: cell-based; details: drugs at cmax values in vivo, 11 days monitoring
[2] = system: pancreatic patient-derived xenograft; assay: In vivo efficacy in pancreatic patient-derived xenograft (PDX-mouse model); details: average response of 5 individual animals
Procedure: To compare whether the in vitro efficacy analysis is matching in vivo (mouse) efficacy drug response data as obtained, pancreatic patient-derived xenograft (PDX-mouse model) and pancreatic microtumors derived from PDX tumor tissue were generated. Two single drugs (Gemcitabine and Abraxane) and two drug combinations (Gemcitabine:Erlotinib and Gemcitabine:Abraxane) were tested. In vivo data points reflect the average response of 5 individual animals.

[3] = system: living, perfused microvessels (vasculature) of in vitro vascularized microtumors; details: VMT platform, Sobrino et al. 2016; cited from earlier work

Compound | drug efficacy on microtumors (t11/t0 and t11treated/t11control) [1] | in vivo (mouse) efficacy drug response [2] | effect on vasculature of vascularized microtumors [3]
Nc1ccn([C@@H]2O[C@H](CO)[C@@H](O)C2(F)F)c(=O)n1 [Gemcitabine] | highest efficacy | highest efficacy | 
O=C1[O][Pt]2([NH][C@@H]3CCCC[C@H]3[NH]2)[O]C1=O [Oxaliplatin] | least effective |  | 
N#CC1(c2ccc(NC(=O)c3cccnc3NCc3ccncc3)cc2)CCCC1 [Apatinib] |  |  | not effective
